According to the supplement of paper PMC11208160:

Assay: recombinant UMI read abundance after kanamycin selection (control-corrected) (log10(CPM+1)); higher = more efficient recombination; extreme values may be limits of the assay; sequences stand for … in AGTGCAGAGAAAATCGGCCAGTTTTCTCTGCCTGCAGTCCGCATGCCGTGGGACCCCTTGGGTTCTAACCTGTTGCCTAGATTTATGCAGCGGACTGCCTTTCTCCCAAAGTGATAAACCGG…AGGTTGGTTTCACT; site = the 11-nt donor
Procedure, shortened: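 The measure is log10(CPM+1) for recombinant UMIs. These were PCR-amplified across the donor–target junction and sequenced after Escherichia coli carrying a donor and donor-binding-loop pair library and a target plasmid with T7-inducible IS621 bridge recombinase was plated on IPTG (0.07 mM) plus kanamycin or unselected. CPM were averaged over two replicates and scaled by control-derived factors.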
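Further: IS621 bridge recombinase in Escherichia coli cells against a fixed T5 target plasmid.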

Sequence	recombinant UMI read abundance (log10)
CGGAACCCATGGACCGGTTTTCCCGGTAATCCGTATTTGTT (site CGGAAGCCTAA)	0.00321
CGGAACCCATGGACCGGTTTTCCCGGTAATCCGTATTTGTT (site CGGAATCCTAA)	0.208
CGGAAGACATGGACCGGTTTTCCCGGTAATCCGTATTTGAA (site AGGAAGACTTG)	0
CGGAAGACATGGACCGGTTTTCCCGGTAATCCGTATTTGAA (site CGGAAGACTTT)	2.24
CGGAAGCCATGGACCGGTTTTCCCGGTAATCCGTATTTGTT (site CGGAAACCTAA)	0
CGGAAGCCATGGACCGGTTTTCCCGGTAATCCGTATTTGTT (site CGGAACCCTAA)	0.00486
CGGAAGCCATGGACCGGTTTTCCCGGTAATCCGTATTTGTT (site CGGAAGCCTAA)	0.218
CGGAAGCCATGGACCGGTTTTCCCGGTAATCCGTATTTGTT (site CGGAATCCTAA)	0
CGGAAGTCATGGACCGGTTTTCCCGGTAATCCGTATTTGCC (site CGGAAGTCTGG)	2.88
CGGAAGTCATGGACCGGTTTTCCCGGTAATCCGTATTTGCC (site CGGCAGTCTGG)	0
CGGAAGTCATGGACCGGTTTTCCCGGTAATCCGTATTTGCC (site CGGGAGTCTGG)	0.686
CGGAAGTCATGGACCGGTTTTCCCGGTAATCCGTATTTGCC (site CGGTAGTCTGG)	1.08
CGGAATACATGGACCGGTTTTCCCGGTAATCCGTATTTGAT (site CGGAATACTAT)	2.16
CGGAATACATGGACCGGTTTTCCCGGTAATCCGTATTTGAT (site CGGAATCCTAA)	0
CGGAATCCATGGACCGGTTTTCCCGGTAATCCGTATTTGCT (site CGGAATCCTAA)	0.106
CGGAATCCATGGACCGGTTTTCCCGGTAATCCGTATTTGCT (site CGGAATCCTAC)	0
CGGAATCCATGGACCGGTTTTCCCGGTAATCCGTATTTGCT (site CGGAATCCTAG)	2.08
CGGAATCCATGGACCGGTTTTCCCGGTAATCCGTATTTGCT (site CGGAATCCTAT)	0.767
CGGAATCCATGGACCGGTTTTCCCGGTAATCCGTATTTGTC (site CGGAATCCTAA)	0
CGGAATCCATGGACCGGTTTTCCCGGTAATCCGTATTTGTC (site CGGAATCCTCA)	0.00507
CGGAATCCATGGACCGGTTTTCCCGGTAATCCGTATTTGTC (site CGGAATCCTGA)	2.06
CGGAATCCATGGACCGGTTTTCCCGGTAATCCGTATTTGTC (site CGGAATCCTTA)	0
CGGAATGCATGGACCGGTTTTCCCGGTAATCCGTATTTGTT (site CGGAATACTAA)	2
CGGAATGCATGGACCGGTTTTCCCGGTAATCCGTATTTGTT (site CGGAATCCTAA)	0.00325
CGGAATGCATGGACCGGTTTTCCCGGTAATCCGTATTTGTT (site CGGAATGCTAA)	2.84

Sequence	recombinant UMI read abundance (log10)
CGGAATGCATGGACCGGTTTTCCCGGTAATCCGTATTTGTT (site CGGAATTCTAA)	0
CGGACACCATGGACCGGTTTTCCCGGTAATCCGTATTTGCT (site CGGACAACTAG)	0
CGGACACCATGGACCGGTTTTCCCGGTAATCCGTATTTGCT (site CGGACACCTAG)	0
CGGACACCATGGACCGGTTTTCCCGGTAATCCGTATTTGCT (site CGGACAGCTAG)	0.00902
CGGACACCATGGACCGGTTTTCCCGGTAATCCGTATTTGCT (site CGGACATCTAG)	0
CGGACAGCATGGACCGGTTTTCCCGGTAATCCGTATTTGCT (site CGGACAACTAG)	0.393
CGGACAGCATGGACCGGTTTTCCCGGTAATCCGTATTTGCT (site CGGACACCTAG)	0
CGGACAGCATGGACCGGTTTTCCCGGTAATCCGTATTTGCT (site CGGACAGCTAG)	2.07
CGGACAGCATGGACCGGTTTTCCCGGTAATCCGTATTTGCT (site CGGACATCTAG)	0
CGGACATCATGGACCGGTTTTCCCGGTAATCCGTATTTGTT (site CGGACATCTAA)	2.07
CGGACATCATGGACCGGTTTTCCCGGTAATCCGTATTTGTT (site CGGACATCTAC)	0.00517
CGGACATCATGGACCGGTTTTCCCGGTAATCCGTATTTGTT (site CGGACATCTAG)	0
CGGACATCATGGACCGGTTTTCCCGGTAATCCGTATTTGTT (site CGGACATCTAT)	0
CGGACTCCATGGACCGGTTTTCCCGGTAATCCGTATTTGTG (site CGGAATCCTAA)	0.00428
CGGACTCCATGGACCGGTTTTCCCGGTAATCCGTATTTGTG (site CGGACTCCTCA)	0.0192
CGGAGATCATGGACCGGTTTTCCCGGTAATCCGTATTTGCT (site CGGAAATCTAG)	1.27
CGGAGATCATGGACCGGTTTTCCCGGTAATCCGTATTTGCT (site CGGACATCTAG)	0
CGGAGATCATGGACCGGTTTTCCCGGTAATCCGTATTTGCT (site CGGAGATCTAG)	3.03
CGGAGATCATGGACCGGTTTTCCCGGTAATCCGTATTTGCT (site CGGATATCTAG)	0
CGGAGGACATGGACCGGTTTTCCCGGTAATCCGTATTTGCC (site CGGAGGACTGG)	2.76
CGGAGTCCATGGACCGGTTTTCCCGGTAATCCGTATTTGTC (site CGGAATCCTAA)	0
CGGAGTCCATGGACCGGTTTTCCCGGTAATCCGTATTTGTC (site CGGAGTCCTGA)	1.34
CGGATGACATGGACCGGTTTTCCCGGTAATCCGTATTTGAT (site CGGATGACTAT)	2.14
CGGATTCCATGGACCGGTTTTCCCGGTAATCCGTATTTGTA (site CGGAATCCTAA)	0.0133
CGGATTCCATGGACCGGTTTTCCCGGTAATCCGTATTTGTA (site CGGATTCCTTA)	0

Sequence	recombinant UMI read abundance (log10)
CGGATTTCATGGACCGGTTTTCCCGGTAATCCGTATTTGTT (site CGGAATCCTAA)	0
CGGATTTCATGGACCGGTTTTCCCGGTAATCCGTATTTGTT (site CGGATTTCTAA)	0.891
CGGCAACCATGGACCGGTTTTCCCGGTAATCCGTATTTGAT (site CGGAAACCTAT)	0
CGGCAACCATGGACCGGTTTTCCCGGTAATCCGTATTTGAT (site CGGCAACCTAT)	0
CGGCAACCATGGACCGGTTTTCCCGGTAATCCGTATTTGAT (site CGGGAACCTAT)	0
CGGCAACCATGGACCGGTTTTCCCGGTAATCCGTATTTGAT (site CGGTAACCTAT)	0
CGGCACCCATGGACCGGTTTTCCCGGTAATCCGTATTTGTT (site CGGAATCCTAA)	0.00519
CGGCACCCATGGACCGGTTTTCCCGGTAATCCGTATTTGTT (site CGGCACCCTAA)	0.393
CGGCATCCATGGACCGGTTTTCCCGGTAATCCGTATTTGTC (site CGGCATCCTGA)	0
CGGCATGCATGGACCGGTTTTCCCGGTAATCCGTATTTGTT (site CGGAATCCTAA)	0.00719
CGGCATGCATGGACCGGTTTTCCCGGTAATCCGTATTTGTT (site CGGCATGCTAA)	2.31
CGGCCGTCATGGACCGGTTTTCCCGGTAATCCGTATTTGAT (site CGGCCGTCTAT)	0.968
CGGCGGCCATGGACCGGTTTTCCCGGTAATCCGTATTTGTC (site CGGCGGCCTGA)	0.965
CGGCTGCCATGGACCGGTTTTCCCGGTAATCCGTATTTGCA (site CGGCTGCCTTG)	1.18
CGGCTGGCATGGACCGGTTTTCCCGGTAATCCGTATTTGGT (site CGGCTGGCTAC)	1.17
CGGGAACCATGGACCGGTTTTCCCGGTAATCCGTATTTGAA (site CGGGAACCTAT)	0
CGGGAACCATGGACCGGTTTTCCCGGTAATCCGTATTTGAA (site CGGGAACCTCT)	0.00576
CGGGAACCATGGACCGGTTTTCCCGGTAATCCGTATTTGAA (site CGGGAACCTGT)	0
CGGGAACCATGGACCGGTTTTCCCGGTAATCCGTATTTGAA (site CGGGAACCTTT)	0
CGGGAGCCATGGACCGGTTTTCCCGGTAATCCGTATTTGCT (site CGGGAGCCTAG)	0.17
CGGGAGGCATGGACCGGTTTTCCCGGTAATCCGTATTTGCC (site CGGGAGACTGG)	0
CGGGAGGCATGGACCGGTTTTCCCGGTAATCCGTATTTGCC (site CGGGAGCCTGG)	0
CGGGAGGCATGGACCGGTTTTCCCGGTAATCCGTATTTGCC (site CGGGAGGCTGG)	0.183
CGGGAGGCATGGACCGGTTTTCCCGGTAATCCGTATTTGCC (site CGGGAGTCTGG)	0
CGGGAGTCATGGACCGGTTTTCCCGGTAATCCGTATTTGAC (site CGGGAGTCTGA)	2.28
